According to patent US8455033B2, “Taste potentiator compositions and edible confectionery and chewing gum products containing same” (Kraft Foods Global Brands LLC, priority 2005, dated 2013):

Columns and labels:
expert panel members = assay: Sucrose Equivalent Value (SEV): expert panel matches the test solution to stock sucrose solutions; type: in vivo; settings: for effect on sweetness of the sucrose solution (dose response curve): 0 to 1000 ppm in pH 3.2 buffered 5% sucrose; for effect on sweetness (SEV) of sucrose solutions: 500 ppm in pH 3.2 buffered 0%, 3%, 5%, 7% and 9% sucrose; for SEV (%): 500 ppm of a single potentiator in pH 3.2 buffered 5% sucrose
Protocol: One method of measuring the perceived sweetness of a solution is to match it with a stock sucrose solution of known concentration. In the present experiments, the compound of interest is added at a predetermined concentration to a pH 3.2 buffered solution containing 5% sucrose. A number of expert panel members then taste the solution and compare it to a battery of stock sucrose solutions ranging from 3% to 15% at increments of 1%. Each panel member decides which sucrose solution is equisweet with the solution containing the compound of interest. The mean value is then reported as the SEV. Results are reported to 1 decimal place.
In accordance with this methodology, 3-HB was added to a pH 3.2 buffered solution containing 5% sucrose to produce solutions containing from 0 to 1000 ppm 3-HB in 100 ppm increments. […] From FIG. 1 it is apparent that as the dosage of 3-HB increases so does the sweetness of the resultant solution. However the effect is non-linear with each incremental addition having a diminishing effect. The maximum sweetness attainable would appear to be about 7.9% SEV (based on a 5% sucrose solution).
The same methodology as described in Example 7 was repeated with 2,4-DHB in place of 3-HB, to produce the dose response curve for 2,4-DHB (FIG. 2). […] The maximum attainable sweetness would appear to be about 6.7% SEV (based on a 5% sucrose solution).
500 ppm of a sweetener potentiator was added to a pH 3.2 buffered solution containing 5% sucrose and the SEV of the resultant solution determined. […]
pH 3.2 buffered solutions were prepared containing 0%, 3%, 5%, 7% and 9% sucrose. 500 ppm of 2,4-DHB acid, 500 ppm of the sodium salt of 2,4-DHB and 500 ppm of the potassium salt of 2,4-DHB were added individually to each of the sucrose solutions. The SEV for each of the solutions was then determined.
500 ppm of 3-aminobenzoic acid and 500 ppm of 4-aminobenzoic acid were individually added to separate pH 3.2 buffered solutions containing 5% sucrose and the SEVs of the resultant solutions were determined. The SEV of 3-aminobenzoic acid was about 7%, i.e., increased the sweetness intensity of 5% sucrose to about 7%. The SEV of 4-aminobenzoic acid was about 5.5-6%, i.e., increased the sweetness intensity of 5% sucrose to about 5.5-6%.

[1] = 0.2% added to a 5% sucrose solution; Canadian Patent No. 1208966; cited from earlier work

Row | SMILES | effect on sweetness of the sucrose solution (dose response curve) (expert panel members) | effect on sweetness (SEV) of sucrose solutions (expert panel members) | SEV (%) (expert panel members) | other results
1 | O=C(O)c1ccc(O)cc1O [2,4-DHB, 2,4-dihydroxybenzoic acid] | enhances the sweetness of the sucrose solution | enhances the sweetness of the sucrose solution in every case |  | effect on sweetness of sucrose solution [1]: increase in sweetness
2 | O=C(O)c1cc(O)c(O)c(O)c1 [3,4,5-THB, 3,4,5-tryhydroxybenzoic acid] |  |  | 5.1% | 
3 | O=C(O)c1ccc(O)c(O)c1 [3,4-DHB, 3,4-dihydroxybenzoic acid] |  |  | 6.4% | 
4 | O=C(O)c1cccc(O)c1 [3-HB, 3-hydroxybenzoic acid] | enhances the sweetness of the sucrose solution |  |  | 
5 | O=C([O-])c1ccc(O)cc1O.[K+] [potassium salt of 2,4-DHB] |  | enhances the sweetness of the sucrose solution in every case |  | 
6 | O=C([O-])c1ccc(O)cc1O.[Na+] [sodium salt of 2,4-DHB] |  | enhances the sweetness of the sucrose solution in every case |  | 
